Test results taken from patent US20240018105A1, “TROPOLONE DERIVATIVES AND TAUTOMERS THEREOF FOR IRON REGULATION IN ANIMALS” (Kinesid Therapeutics, Inc., priority 2019, published 2024).

Assays:
[1] = Ligand facilitated Fe(III) efflux from liposomes; settings: 10 uM ligand concentration; Table 1
Method: Assay 1: Ligand Facilitated Fe(III) Efflux from Liposomes Preparation of POPC (1-palmitoyl-2-oleoyl-sn-glycero-3-phosphocholine): Cholesterol Liposomes:
A 1M buffer solution of MES and Tris was prepared by dissolving 121.14 grams of Tris base and 213.25 grams of MES hydrate in 500 mL of MilliQ water and adjusted to pH7.0 using an […] HCl solution before bringing the total volume of the solution to 1 L. A 500 mM solution of FeCl3 was prepared by dissolving 0.811 grams of anhydrous FeCl3 in 10 mL of a 0.1M H2SO4 aqueous solution. Inside buffer is prepared in a 50 mL falcon tube, which was added with 25 mL of MilliQ water, 1.61 g of sodium citrate, 1.5 mL of the above FeCl3 solution, and 2.5 mL of the 1M MES/Tris HCl buffer (pH=7.0), and finally additional MilliQ H2O to bring to a 50 mL final volume.
Lipid solution is prepared by dissolving 206.9 mg of POPC (1-palmitoyl-2-oleoyl-sn-glycero-3-phosphocholine) and 8.6 mg of cholesterol in 10 mL of ethanol.
The lipids solution and the inside buffer solution are independently loaded into 10 mL luer lock syringes for loading into a virgin cartridge on a Precision Nanosystems NanoAssembler to prepare unilamaller liposomes with the following parameters: 7.5 mL total volume, 1.5:1 mixing ratio of inside buffer:lipids solution, 8 mL/min flow rate, ambient temperature, 0.35 mL start waste, and 0.05 mL of end waste. 7.5 mL of liposomes is harvested for purification on a 6-inch long, 1-inch diameter Sephadex G-50 column wetted in 600 mM sodium ascorbate and 50 mM MES/Tris HCl pH 7.0 buffer. This buffer also serves as the column running buffer. The crude liposome solution is carefully loaded with minimal volume of running buffer above the top of the Sphadex, allowed to enter the matrix, and the column is run with the continued addition of running buffer. The eluting liposomes, observed as a milky and turbid solution, are collected until free iron begins to elute (observed as a deep purple color) and the fractions are pooled for phosphorus quantitation.
Phosphorus content of eluted liposomes was determined by the process outlined below. 10 uL of liposome elution and a running buffer blank are added to a 5 mL glass vial containing 450 uL of a 8.9 M aqueous H2SO4 solution, the mixture is heated to 225° C. for 25 minutes in an aluminum heat block to hydrolyze POPC and cooled for 5 minutes. 200 ul of a 30% hydrogen peroxide aqueous solution is added to each vial and heated to 225° C. for 25 minutes. After cooling, the phosphorus content was determined using an Abcam Phosphate Assay kit, with buffer subtracted phosphorus levels determined against a standard curve of phosphate included in the kit. Liposomes were diluted to 1 mM phosphate in Running Buffer for use in assays after accounting for dilutions made during phospholipid digestion.
Determination of the rate at which a small molecule ligand liberates (transport) Ferric iron from liposomes is performed in clear bottom black 384-well plates on a Spectramax i3x set to read the absorbance at 562 nm in the kinetic mode every 60 seconds for 120 minutes. 1 uL of serially diluted DMSO stock solution of a small molecule ligand is added to wells in triplicate to give the final concentrations of 40, 20, 10, 5, 2.5, and 1.25 uM of the ligand at 80 μL final volume, followed by addition of 1 μL of 100 mM Ferrozine in water to give a final concentration of 1 mM ferrozine. 78 uL of liposomes diluted to 1 mM phosphorus in running buffer is added to wells as quickly as possible (using a digital repeater mulchannel pipette) with the kinetic read initiated as rapidly as possible after addition of liposomes to all wells. Typically, eight compounds at six concentrations are tested in triplicate simultaneously.
Upon completion of kinetic read, the data for individual reads is fitted to a single phase association regression with the equation Y=(Y0−YMax)^(−kX)+YMax, with Y being the 562 absorbance value and X being time in minutes. […]

[2] = test system: DMT1-deficient Caco-2 cells; assay: shDMT1-Caco2 55Fe transport assay; format: cell-based; settings: Caco-2
Description: Assay 2: shDMT1-Caco2 ^55Fe Transport Assay to Assess Ligand Ability in Transporting Fe (III)
Cells: DMT1-deficient Caco-2 cells (alias: “shDMT1,” or “4A” cells) were from Grillo et al. Science, 2017, and were cryopreserved in liquid nitrogen prior to use.
Reagents and supplies: ^55FeCl3 was obtained from PerkinElmer (Boston, MA). Iron(III) chloride (FeCl3) hexahydrate was obtained from Sigma. Dulbecco's Modified Eagle Medium (DMEM), fetal bovine serum (FBS), L-glutamine, MEM nonessential amino acids, penicillin-streptomycin, G418, formic acid, methanol, high-purity water, ammonium formate, dimethyl sulfoxide (DMSO) were purchased from Fisher Scientific. Propranolol, atenolol and carbutamide were obtained from Sigma-Aldrich Chemical Company (St Louis, MO). Scintillation cocktail was obtained from Research Product International Co. (Mount Prospect, IL). Stericup filter system (PES membrane, 0.22 um pore size) was purchased from Fisher Scientific. Coming item #3378 24-well transwell insert plates. Test articles: known compounds hinokitiol and deferiprone were purchased from Sigma. They are tested side by side with the small molecule ligands disclosed in this application. DMSO stocks (10 mM, which is 1,000× of the 10 μM dose level) of hinokitiol or test articles were prepared. A stock solution of 25 mM deferiprone in DMSO was prepared. The DMSO stock solutions were stored at −20° C. or below when not in use.
The growth medium was prepared according to the following table
Apical media (serum free DMEM, 10 mM MES, pH 6.5) was prepared. Apical master mix media was prepared fresh with the addition of 200 nM ^55Fe before each experiment. For the negative control propranolol and atenolol wells, 200 nM of non-radioactive iron was used.
The basolateral media was serum-free DMEM, 10 mM HEPES, 2% bovine serum albumin (BSA), pH 7.4.
For each experiment, cells were seeded into the 24-well transwell plates (0.5 mL of 50,000 cells/mL) with growth media. The basolateral companion plate was loaded with 1 mL of growth media. After 12-24 hr, both the apical and basolateral chamber were replaced with growth media. The apical media was changed 3× per week for 21-28 days, including a media change exactly 48 hr before the assay date.
On the assay day, the TEER values were measured and the average TEER values was obtained. Individual wells with TEER vaule >35% lower than the average of all wells were excluded. For the qualified wells, the apical layer (twice) and basolaterial (once) chambers were washed with PBS. The basolateral companion plate was then filled with 1 mL of basolateral media. Via addition down the side-wall of the apical well, 300 μL per well of the apical assay master mix, with the indicated dose level of test article, was added. Each dose was tested in triplicate. The plates were incubated (5% CO2 and 90% humidity at 37° C.) for the indicated timepoints. At each indicated timepoint, the basolateral supernatant was gently mixed via pipetting, and 200 μL of the basolateral supernatant was transferred to scintillation vials. To each scintillation counting vial, 5 mL of scintillation cocktail fluid was added. For each scintillation vial, the radioactivity (CPM) was determined with liquid scintillation counter LS6500. The counting time per vial was 5 min.
All raw CPM values are divided by the average value of blank DMSO solution to give a fold of change above the DMSO value. The mean and standard deviation of each compound at each concentration level and at each time point measured was calculated to give the fold change (fc) value.
For rank order compounds, the fc value of a ligand at 4 h time point is further divided by the fold change (fc) value of hinokitiol (a positive control compound) at an equimolar concentration to arrive at the FC (normalized fold of change) value. Data reported in Tables 1 and 2 is 4 hr time point FC=fc-ligand @ 3 uM/fc-hino @ 3 uM, and FC hino=1.

| SMILES | Caco2 shDMT1 transport FC @ 3 μM, 4h [2] | Liposome Fe transport kefflux at 10 10 μM [1] |
| --- | --- | --- |
| N#Cc1cncc(-c2cccc(=O)c(O)c2)c1 [Ex.4, 5-(6-hydroxy-5-oxocyclohepta-1,3,6-trien-1-yl)nicotinonitrile] | 0.01-0.5 | 0.1-5 |
| COc1cc(-c2cccc(=O)c(O)c2)c(F)cn1 [Ex.6, 4-(5-fluoro-2-methoxypyridin-4-yl)-2-hydroxycyclohepta-2,4,6-trien-1-one] | 0.01-0.5 | 7.5-10 |
| COc1cc(-c2cccc(=O)c(O)c2)ccn1 [Ex.8, 2-hydroxy-4-(2-methoxypyridin-4-yl)cyclohepta-2,4,6-trien-1-one] | 0.01-0.5 | 7.5-10 |
| COc1cc(-c2cccc(=O)c(O)c2)cnc1OC [Ex.12, 4-(5,6-dimethoxypyridin-3-yl)-2-hydroxycyclohepta-2,4,6-trien-1-one] | 0.5-1 | 7.5-10 |
| O=c1ccc(-c2cncc(F)c2)ccc1O [Ex.15, 5-(5-fluoropyridin-3-yl)-2-hydroxycyclohepta-2,4,6-trien-1-one] | 0.01-0.5 | 5-7.5 |
| O=c1cccc(-c2cncc(Cl)c2)cc1O [Ex.17, 4-(5-chloropyridin-3-yl)-2-hydroxycyclohepta-2,4,6-trien-1-one] | 0.01-0.5 | 5-7.5 |
| O=c1ccccc(-c2cncc(F)c2)c1O [Ex.24, 2-(5-fluoropyridin-3-yl)-7-hydroxycyclohepta-2,4,6-trien-1-one] | 0.01-0.5 | 7.5-10 |
| COc1ncc(-c2cccc(=O)c(O)c2)cn1 [Ex.30, 2-hydroxy-4-(2-methoxypyrimidin-5-yl)cyclohepta-2,4,6-trien-1-one] | 0.01-0.5 | 0.1-5 |
| Cc1ncc(-c2ccc(O)c(=O)cc2)cn1 [Ex.33, 2-hydroxy-5-(2-methylpyrimidin-5-yl)cyclohepta-2,4,6-trien-1-one] | 0.01-0.5 | 0.1-5 |

Now from value to molecule, other results behind:

| Caco2 shDMT1 transport FC @ 3 μM, 4h [2] | SMILES | Liposome Fe transport kefflux at 10 10 μM [1] |
| --- | --- | --- |
| 0.01-0.5 | O=c1cccc(-c2cncc(F)c2F)cc1O [Ex.2, 4-(4,5-difluoropyridin-3-yl)-2-hydroxycyclohepta-2,4,6-trien-1-one] | 0.1-5 |
| 0.01-0.5 | Cc1cnccc1-c1cccc(=O)c(O)c1 [Ex.9, 2-hydroxy-4-(3-methylpyridin-4-yl)cyclohepta-2,4,6-trien-1-one] | 0.1-5 |
| 0.01-0.5 | COc1cncc(-c2cccc(=O)c(O)c2)c1 [Ex.10, 2-hydroxy-4-(5-methoxypyridin-3-yl)cyclohepta-2,4,6-trien-1-one] | 0.1-5 |
| 0.01-0.5 | O=c1cccc(-c2cccnc2)cc1O [Ex.11, 2-hydroxy-4-(pyridin-3-yl)cyclohepta-2,4,6-trien-1-one] | 0.1-5 |
| 0.01-0.5 | Cc1ccc(-c2cccc(=O)c(O)c2)cn1 [Ex.18, 2-hydroxy-4-(6-methylpyridin-3-yl)cyclohepta-2,4,6-trien-1-one] | 0.1-5 |
| 0.01-0.5 | COc1ccc(-c2cccc(=O)c(O)c2)cn1 [Ex.19, 2-hydroxy-4-(6-methoxypyridin-3-yl)cyclohepta-2,4,6-trien-1-one] | 0.1-5 |
| 0.01-0.5 | O=c1cccc(-c2cncnc2)cc1O [Ex.29, 2-hydroxy-4-(pyrimidin-5-yl)cyclohepta-2,4,6-trien-1-one] | 5-7.5 |
| 0.01-0.5 | Cc1ncc(-c2ccccc(=O)c2O)cn1 [Ex.34, 2-hydroxy-3-(2-methylpyrimidin-5-yl)cyclohepta-2,4,6-trien-1-one] | 0.1-5 |
| 0.01-0.5 | Cc1ncc(-c2ccc(O)c(=O)cc2)c(C)n1.O=C(O)C(F)(F)F [Ex.35, 5-(2,4-dimethylpyrimidin-5-yl)-2-hydroxycyclohepta-2,4,6-trien-1-one] | 7.5-10 |
| 0.01-0.5 | Cc1ncc(-c2ccccc(=O)c2O)c(C)n1 [Ex.36, 3-(2,4-dimethylpyrimidin-5-yl)-2-hydroxycyclohepta-2,4,6-trien-1-one] | 5-7.5 |
| 0.01-0.5 | COc1nccc(-c2ccc(O)c(=O)cc2)n1.O=C(O)C(F)(F)F [Ex.38, 2-hydroxy-5-(2-methoxypyrimidin-4-yl)cyclohepta-2,4,6-trien-1-one] | 0.1-5 |
| 0.01-0.5 | COc1nccc(-c2cccc(=O)c(O)c2)n1.O=C(O)C(F)(F)F [Ex.39, 2-hydroxy-4-(2-methoxypyrimidin-4-yl)cyclohepta-2,4,6-trien-1-one] | 0.1-5 |
